# Data taken from patent US6911418B2, “Method for treating a subterranean formation” (Schlumberger Technology Corporation, priority 2001, dated 2005).
# Assay: pH resulting from the aqueous mixture
# Format: physicochemical
# Settings: 20 percent tetrasodium, 28 percent dipotassium, 21 percent diammonium mixtures
# Protocol: Calcium carbonate was stirred into each mixture until saturation was achieved. The amount of calcium carbonate dissolution was then determined by inductively coupled plasma.
substance,measurement,value
tetrasodium ethylenediamine tetraacetate,pH of aqueous mixture,about 12
